By Ki is commonly meant a measure of affinity in units of concentration, obtained from inhibition or displacement. The IC50 is the concentration that inhibits the measured activity by half.

Ki and IC50 data for 2 compounds are collected here from patent US6894059B1, “Compounds and methods for treatment of asthma, allergy and inflammatory disorders” (UCB S.A., priority 1999, dated 2005).

Structures are written as SMILES.

One assay addresses T1, human cloned H1 receptor (Homo sapiens, UniProt P35367).
T1 construct: expressed in transfected cells; host or cells: CHO-K1
Briefly: CHO-K1 H1R binding assay (3H-pyrilamine displacement). The note with it: CHO-K1 membranes, 3H-pyrilamine 2 nM, 3 hours at 37° C.; read-out: CHOH1 KI.

Assay [1] concerns the target T2, human 5-lipoxygenase enzyme (Homo sapiens, UniProt P09917).
T2 construct: Blood is drawn from normal human volunteers into tubes containing heparin; endogenous in cells; host or cells: human whole blood, heparinized, stimulated with A23187
T2 sequence (P09917 1-674): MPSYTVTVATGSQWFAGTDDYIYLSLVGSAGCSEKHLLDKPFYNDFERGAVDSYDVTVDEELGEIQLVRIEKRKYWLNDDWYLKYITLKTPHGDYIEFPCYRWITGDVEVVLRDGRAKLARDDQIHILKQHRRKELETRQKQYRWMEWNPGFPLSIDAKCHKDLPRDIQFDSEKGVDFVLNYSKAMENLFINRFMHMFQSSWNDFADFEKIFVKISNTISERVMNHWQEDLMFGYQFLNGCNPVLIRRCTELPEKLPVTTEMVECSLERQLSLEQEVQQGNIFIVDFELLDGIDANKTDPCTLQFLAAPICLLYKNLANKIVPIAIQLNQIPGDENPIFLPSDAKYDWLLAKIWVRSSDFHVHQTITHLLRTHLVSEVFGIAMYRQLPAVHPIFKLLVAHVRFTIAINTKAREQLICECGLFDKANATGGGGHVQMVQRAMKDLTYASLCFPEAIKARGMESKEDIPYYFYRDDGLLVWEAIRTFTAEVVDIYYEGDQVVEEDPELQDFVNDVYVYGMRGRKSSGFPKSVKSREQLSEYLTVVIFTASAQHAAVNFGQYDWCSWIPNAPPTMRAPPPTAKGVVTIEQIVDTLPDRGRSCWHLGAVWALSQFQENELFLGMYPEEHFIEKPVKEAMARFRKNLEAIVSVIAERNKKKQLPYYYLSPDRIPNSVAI
The assay is described as follows: Inhibition of LTB4 production in human whole blood stimulated with calcium ionophore A23187. The format is cell-based. The note with it: A23187 50 μM, LTB4 by EIA, read-out: HWB IC50. The procedure:
This assay examines the ability of a compound to inhibit leukotriene B4 Production from human blood stimulated with calcium ionophore. As this production of leukotriene B4 is mediated via the activation of the 5-lipoxygenase enzyme, this assay is predictive of a compound's ability to inhibit the human 5-lipoxygenase enzyme.
The procedure for the assay is as follows. Blood is drawn from normal human volunteers into tubes containing heparin. 1 ml of the heparinized blood is pipetted into a 1.5 ml polypropylene tube. To this sample is added either different concentrations of the test compound (5 μl) dissolved in DMSO or 5 μl of DMSO as a vehicle control. These samples are incubated in a water bath, at […] for 15 min. […] From this a percent inhibition of LTB4 production by each concentration of test compound is calculated and the IC50 for inhibition of LTB4 production for each test compound is determined.

T1 sequence (P35367 whole entry): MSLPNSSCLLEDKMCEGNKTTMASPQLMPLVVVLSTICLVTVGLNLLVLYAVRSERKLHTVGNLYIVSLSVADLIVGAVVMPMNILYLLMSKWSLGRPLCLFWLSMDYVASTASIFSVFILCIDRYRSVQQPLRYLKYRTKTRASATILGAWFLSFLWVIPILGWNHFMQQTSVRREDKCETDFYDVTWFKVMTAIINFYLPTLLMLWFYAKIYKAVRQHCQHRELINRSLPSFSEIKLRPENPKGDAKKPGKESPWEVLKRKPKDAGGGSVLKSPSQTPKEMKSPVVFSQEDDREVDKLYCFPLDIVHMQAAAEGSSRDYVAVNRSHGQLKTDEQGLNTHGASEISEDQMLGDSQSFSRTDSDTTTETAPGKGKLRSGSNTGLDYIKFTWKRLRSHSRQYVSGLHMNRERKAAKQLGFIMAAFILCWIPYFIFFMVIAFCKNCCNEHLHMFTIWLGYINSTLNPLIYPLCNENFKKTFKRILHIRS
Procedure for human cloned H1 receptor: CHO—K1 cells expressing the human cloned H1 receptor are grown to confluence in tissue culture dishes. Cells are harvested using D-PBS buffer (JRH Biosciences), kept at 4° C., centrifuging to pellet cells (4° C., 500 g, 10 min). The final cell pellet is homogenized and resuspended using Tris/sucrose buffer (20 mM Tris, 250 mM sucrose, pH 74 at 4° C. Aliquots of the membrane preparation are stored at −70° C.
On the day of assay, the membrane preparation is thawed and centrifuged (TLA100.3 rotor, 4° C., 15 min, 23,000 rpm). The pellet is resuspended in Tris/sucrose buffer initially and then diluted further as necessary using assay buffer A (50 mM Na/KPO4, 2 mM MgCl2, 0.5% (w/v) BSA, pH 7.5).
For the binding assay, the membrane preparation, test compound and ^3H-pyrilamine (2 nM final) in buffer A with 1% (v/v) DMSO final are incubated in a 96-well polypropylene plate for 3 hours at 37° C. Non-specific binding is determined in the presence of 10 μM pyrilamine. A 96-well harvester (Packard) is used to harvest the 96-well plate onto a GF/B filter plate pre-treated with 0.1% (v/v) PEI. The plate is counted in a Packard Topcounter after adding Microscint 20 (Packard) scintillation fluid. The Ki for each compound at the histamine H1 receptor is then calculated from these counts.

Consider `C[C@@H](c1ccc(OCCN2CCN(C(c3ccc(F)cc3)c3ccc(F)cc3)CC2)cc1)N(O)C(N)=O` (racemic) [Compound 11, amino-N-{[4-(2-{4-[bis(4-fluorophenyl)methyl]piperazinyl}ethoxy)phenyl]ethyl}-N-hydroxyamide], for which, at human cloned H1 receptor, the Ki was determined as 130 nM. Besides, in assay [1], the IC50 stood at 3630 nM.
Consider `NC(=O)N(O)CCOCCN1CCN([C@@H](c2ccccc2)c2ccc(Cl)cc2)CC1` [Compound 22, N-[2-(2-{4-[(1R)(4-chlorophenyl)phenylmethyl]piperazinyl}ethoxy)ethyl] amino-N-hydroxyamide], for which, on human cloned H1 receptor, the Ki amounted to 8 nM. For the same compound, in assay [1], the IC50 is 1470 nM.
